Data on 29 molecules can be found in publication PMC11475664, “Alpha-glucosidase inhibitory compounds from Vietnamese lichen Usnea baileyi: in vitro and in silico aspects” (RSC Advances, 2024).

In one test the test system is HepG2 cells. As to the kind of experiment: Cytotoxicity assay (MTT, 72 h) on HepG2. The format is cell-based. Particulars: Homo sapiens; liver cancer cell line HepG2, MTT, 72 h, Table S2; read-out: HepG2 IC50. The protocol: (§1) Table S2. Cytotoxicity of compounds 1-6, 11, 1a-1e, and 6a […]
(§2) The method used followed that reported by Nguyen et al. (2022). Briefly, HepG2 and Hek293 cells in a complete medium containing DMEM (HyClone, Cytiva, USA) and 10% fetal bovine serum (FBS) were seeded into a 96-well plate at 5 × 10^4 cells per well. The cells were then incubated at 37°C with 5% CO2. After culturing for 24 h, the old medium was replaced by diluted compounds (in DMSO), positive control Doxorubicin (DOX, Fesenius Kabi, Germany), and negative control dimethyl sulfoxide (DMSO, Sigma-Aldrich, Germany). After 72 h of treatment, MTT (3-(4,5-Dimethyl-2-thiazolyl)-2,5-diphenyl-2H-tetrazolium bromide) was added into each well of the test plate. The plate was incubated at 37°C with 5% CO2 for another 3 h. DMSO was used to dissolve the crystals from the interaction between MTT and viable cells. The absorbance of samples was read at 570 nm by the ELISA Reader (BioTek, USA). Cell death (% inhibition) was estimated by the following formula:
(§3) % Inhibition = 100 − [100 × (A Sample – A B1)/(ADMSO – A B2)]
(§4) Where, ASample: Absorbance of sample, ADMSO: Absorbance of negative control, AB1: Absorbance of blank of sample, AB2: Absorbance of blank of DMSO. The IC50 value and the inhibitory chart were respectively calculated and built using GraphPad Prism software (version 8.0.1, Insightful Science LLC, […]
(§5) Ref: Nguyen HH, Aree T, Nguyen HT, et al. Diorygmones A-B, two new guaiane-sesquiterpenes from the cultured lichen mycobiont of Diorygma sp. Natural Product Research. Published online February 1,

In the next test the target is yeast alpha-glucosidase. As to the kind of experiment: Alpha-glucosidase inhibition assay. The format is biochemical. To be noted: yeast alpha-glucosidase. The text has this: Evaluation of the inhibitory activity of compounds against yeast alpha-glucosidase followed a previous procedure.[30]
For the next test, the system named is Hek293 cells. As to the kind of experiment: Cytotoxicity assay (MTT, 72 h) on Hek293. The format is cell-based. To be noted: Homo sapiens; normal cells Hek293, MTT, 72 h, Table S2; read-out: Hek293 IC50. Here is the method:
as §1, §2, §3, §4, §5

For the next test, the target named is alpha-glucosidase. To be noted: cited from earlier work.
[1] abbreviates: read-out: IC50, alpha-glucosidase inhibition of natural analogs of 1e (Fig. 9).
The mark [2] stands for this setting: read-out: IC50, alpha-glucosidase inhibition of related synthetic analogs (Fig. 8).
Where [3] appears, read: read-out: IC50, alpha-glucosidase inhibition, previously reported.

Values after ≈ are worked out from the molar mass of the structure shown. Read-outs that look alike come from different tables or passages of the source.

Regarding `COc1c(C)c2c(c(C)c1Cl)Oc1c(C)c(O)c(Cl)c(C)c1C(=O)O2` [Compound 5, vicanicin], the 50% inhibitory concentration (IC50) with HepG2 cells is > 100 µg/mL; against yeast alpha-glucosidase, > 200 µM; in the test on Hek293 cells it was > 100 µg/mL.
Consider `COC(=O)c1c(C)c(Cc2c(O)c(C(=O)O)c(C)c3c2Oc2c(C=O)c(O)cc(C)c2C(=O)O3)c(O)c(C=O)c1O` [Parmosidone J], for which the IC50 on alpha-glucosidase (setting [1]) is 10.7 µM.
For the molecule `Cc1c(Br)c(O)c(C=O)c2c1C(=O)Oc1c(Br)c(O)c3c(c1O2)C(O)OC3=O` (stereo not shown) [V], the IC50 on alpha-glucosidase (setting [2]) is 14.3 µM.
In the case of `Cc1c(Cl)c(O)c(C=O)c(O)c1C(=O)O` [Compound 10, 5-chlorohaematommic acid], the IC50 on yeast alpha-glucosidase is > 200 µM.
Turning to `COc1cc(C)c2c(c1C=O)Oc1c(c(C)c(O)c3c1C(OC)OC3=O)OC2=O` (stereo not shown) [Compound 2, 8′-methylstictic acid], the values for the IC50 in the test on HepG2 cells, against yeast alpha-glucosidase and with Hek293 cells were > 100 µg/mL, 41.8 ± 1.5 µM and > 100 µg/mL, respectively.
With `Cc1cc(O)c(/C=N/Nc2ccc(Br)cc2)c2c1C(=O)Oc1c(CO)c(O)c(C(=O)O)c(C)c1O2` [Compound 1b, (E)-4-((2-(4-bromophenyl)hydrazono)methyl)-3,8-dihydroxy-9-(hydroxymethyl)-1,6-dimethyl-11-oxo-11H-dibenzo[b,e][1,4]dioxepine-7-carboxylic acid], the IC50 in the test with HepG2 cells is > 100 µg/mL; on yeast alpha-glucosidase it was 20.7 ± 1.1 µM; with Hek293 cells, > 100 µg/mL.
On to `Cc1cc(O)c(/C=N/Nc2ccc(Br)cc2)c2c1C(=O)Oc1c(CO)c(O)c3c(c1O2)C(O)OC3=O` (stereo not shown) [I, (E)-11-((2-(4-bromophenyl)hydrazineylidene)methyl)-1,4,10-trihydroxy-5-(hydroxymethyl)-8-methyl-7H-benzo[6,7][1,4]dioxepino[2,3-e]isobenzofuran-3,7(1H)-dione], for which the “inhibition type, previously reported” value in the test with alpha-glucosidase is reported as “non-competitive inhibitors”. Also, the IC50 at alpha-glucosidase (setting [2]) was 11.3 µM.
Take `Cc1cc(O)c(/C=N/Nc2ccc(Cl)cc2)c2c1C(=O)Oc1c(CO)c(O)c3c(c1O2)C(O)OC3=O` (stereo not shown) [II]: on alpha-glucosidase (setting [2]), the IC50 is 19.4 µM.
For the molecule `Cc1cc(O)c(C=O)c(O)c1Cc1c(O)c(C(=O)O)c(C)c2c1Oc1c(C=O)c(O)cc(C)c1C(=O)O2` [Cristifone B], in the test on alpha-glucosidase, the “inhibition type, previously reported” value is listed as “non-competitive inhibitors”. On alpha-glucosidase (setting [1]), the IC50 was 18.4 µM.
Take `CC(=O)C=Cc1c(O)cc(C)c2c1Oc1c(c(Cc3c(C)cc(O)cc3O)c(O)c3c1C(O)OC3=O)OC2=O` (stereo not shown) [Parmosidone G]: on alpha-glucosidase (setting [1]), the IC50 was 4.3 µM.
For the molecule `Cc1cc(O)c(C=O)c2c1C(=O)Oc1c(C)c(O)c3c(c1O2)C(O)OC3=O` (stereo not shown) [Compound 6, norstictic acid], the half-inhibitory concentration (IC50) in the test with HepG2 cells was > 100 µg/mL; against yeast alpha-glucosidase, 50.7 ± 2.7 µM; with Hek293 cells it was > 100 µg/mL.
For `Cc1cc(O)c(C=O)c(O)c1` [Compound 9, atranol], the values for the IC50 on yeast alpha-glucosidase and at alpha-glucosidase (setting [3]) were > 200 µM and 559 µM, respectively.
In the case of `CC(=O)OCc1c(O)c(Br)c(C)c2c1OC(=O)c1c(C)c(Br)c(O)c(Br)c1O2` [Compound 1d, (2,4,7-tribromo-3,8-dihydroxy-1,6-dimethyl-11-oxo-11H-dibenzo[b,e][1,4]dioxep-in-9-yl)methyl acetate], the IC50 amounted to 86.7 ± 0.68 µg/mL in the test with HepG2 cells, 91.8 ± 1.5 µM against yeast alpha-glucosidase and 61.1 ± 2.71 µg/mL in the test on Hek293 cells.
On to `Cc1cc(O)cc(O)c1Cc1c(O)c(C(=O)O)c(C)c2c1Oc1c(C=O)c(O)cc(C)c1C(=O)O2` [Parmosidone K], for which, on alpha-glucosidase (setting [1]), the IC50 was 6.1 µM.
Consider `COc1cc(C)c2c(c1C=O)Oc1c(C=O)c(C(=O)O)c(O)c(C)c1OC2=O` [Compound 4, 4,6-diformyl-8-hydroxy-3-methoxy-1,9-dimethyl-11-oxo-11H-dibenzo[b,e][1,4]dioxepine-7-carboxylic acid], for which the IC50 in the test with HepG2 cells is > 100 µg/mL; at yeast alpha-glucosidase it was > 200 µM; in the test with Hek293 cells, > 100 µg/mL.
As to `Cc1cc(O)c(C=O)c2c1C(=O)Oc1c(CO)c(O)c(C(=O)O)c(C)c1O2` [Compound 1, protocetraric acid], the IC50 in the test with HepG2 cells is 63.6 ± 0.06 µg/mL (≈ 170 µM); against yeast alpha-glucosidase it was 70.6 ± 1.2 µM; at alpha-glucosidase (setting [3]), 81.6 µM; in the test with Hek293 cells, 35.7 ± 2.4 µg/mL (≈ 95.5 µM).
Turning to `COc1cc(C)c(C(=O)Oc2cc(C)c(C(=O)O)c(O)c2C)c(OC)c1C` [Compound 7, diffractaic acid], the concentration for half-maximal inhibition (IC50) is > 200 µM against yeast alpha-glucosidase and 420 µM on alpha-glucosidase (setting [3]).
As to `Cc1c(O)c2c(c3c1OC(=O)c1c(C)c(Br)c(O)c(C=O)c1O3)C(O)OC2=O` (stereo not shown) [Compound 6a, 9-bromo-1,4,10-trihydroxy-5,8-dimethyl-3,7-dioxo-3,7-dihydro-1H-benzo[6,7][1,4]-dioxepino[2,3-e]isobenzofuran-11-carbaldehyde], the values for the IC50 with HepG2 cells, against yeast alpha-glucosidase and in the test with Hek293 cells were > 100 µg/mL, 102 ± 1.8 µM and 88.2 ± 2.02 µg/mL (≈ 195 µM), respectively.
`Cc1c(Br)c(O)c(Br)c2c1Oc1c(Br)c(O)c(Br)c(C)c1C(=O)O2` [Compound 1c, 2,4,7,9-tetrabromo-3,8-dihydroxy-1,6-dimethyl-11H-dibenzo[b,e][1,4]dioxepin-11-one]: the values for the IC50 with HepG2 cells, against yeast alpha-glucosidase and with Hek293 cells were 76.5 ± 1.07 µg/mL (≈ 130 µM), 80.7 ± 1.8 µM and 58.9 ± 2.84 µg/mL (≈ 100 µM), respectively.
Take `Cc1cc(OC(=O)c2c(C)cc(O)cc2O)cc(O)c1Cc1c(O)c(C(=O)O)c(C)c2c1Oc1c(C=O)c(O)cc(C)c1C(=O)O2` [Parmoferone A]: at alpha-glucosidase (setting [1]), the IC50 was 18.1 µM.
For the molecule `Cc1c(Br)c(O)c(Br)c2c1C(=O)Oc1c(CO)c(O)c(Br)c(C=O)c1O2` [III], the IC50 at alpha-glucosidase (setting [2]) was 16.4 µM.
On to `Cc1cc(O)cc(O)c1Cc1c(O)c2c(c3c1OC(=O)c1c(C)cc(O)c(C=O)c1O3)C(O)OC2=O` (stereo not shown) [Parmosidone F], for which, in the test on alpha-glucosidase, the “inhibition type, previously reported” value is given as “mixed-mode inhibitor”. The IC50 at alpha-glucosidase (setting [1]) was 2.2 µM.
`COc1cc(C)c2c(c1C=O)Oc1c(c(C)c(O)c3c1C(O)OC3=O)OC2=O` (stereo not shown) [Compound 3, stictic acid]: the IC50 in the test on HepG2 cells is > 100 µg/mL; at yeast alpha-glucosidase, 30.4 ± 1.4 µM; in the test with Hek293 cells, 33.9 ± 1.6 µg/mL (≈ 87.8 µM).
`Cc1cc(O)c(/C=N/Nc2ccccc2)c2c1C(=O)Oc1c(CO)c(O)c(C(=O)O)c(C)c1O2` [Compound 1a, (E)-3,8-dihydroxy-9-(hydroxymethyl)-1,6-dimethyl-11-oxo-4-((2-phenylhydrazono-)methyl)-11H-dibenzo[b,e][1,4]dioxepine-7-carboxylic acid]: the IC50 with HepG2 cells is > 100 µg/mL; on yeast alpha-glucosidase, 25.9 ± 2.2 µM; in the test on Hek293 cells, > 100 µg/mL.
Consider `COC(=O)c1c(C)c(Cc2c(O)cc(C)c3c2Oc2c(C=CC(C)=O)c(O)cc(C)c2C(=O)O3)c(O)c(C)c1O` [Parmosidone H], for which the IC50 on alpha-glucosidase (setting [1]) was 17.6 µM.
Regarding `Cc1cc(OC(=O)c2c(O)cc(O)c(Cc3c(O)c(C(=O)O)c(C)c4c3Oc3c(C=O)c(O)cc(C)c3C(=O)O4)c2C)cc(O)c1C(=O)O` [Cristifone A], on alpha-glucosidase (setting [1]), the IC50 is 21.5 µM.
`COc1cccc2c1C(=O)c1c(O)c3c(c(O)c1C2=O)C[C@@](O)(C(=O)CO)C[C@@H]3O[C@H]1C[C@H](N)[C@H](O)[C@H](C)O1` [Doxorubicin, reference compound]: the concentration for half-maximal inhibition (IC50) in the test with HepG2 cells was 1.89 ± 0.03 µg/mL (≈ 3.48 µM); with Hek293 cells, 2.13 ± 0.01 µg/mL (≈ 3.92 µM).
Consider `Cc1c(Br)c(O)c(Br)c2c1C(=O)Oc1c(CO)c(O)c3c(c1O2)C(O)OC3=O` (stereo not shown) [IV], for which the IC50 on alpha-glucosidase (setting [2]) was 15.6 µM.
As to `COc1cc(C)c(C(=O)Oc2cc(C)c(C(=O)O)c(O)c2C)c(O)c1C` [Compound 8, barbatic acid], the IC50 on yeast alpha-glucosidase was > 200 µM.

In general, IC50 refers to the midpoint of a concentration-inhibition curve.
